According to US20140234502A1, “Treatment of Produce” (Rohm and Haas Company, priority 2009, published 2014):

Assays:
Type in all cases: in vivo, pear
[1] = tested on: Conference Pears; experiment: Inspection of Conference pears for rot, bruising and internal browning
From the text: (§1) Pears (Conference, William's/Bartlett, or Packam's) were harvested at maturity for long storage. Number of fruits and replicates were selected according to the size of the chamber in which to apply 1-MCP and according to the statistical design. Airtight containers in the range of 1 cubic meter were used for the application of both 1-MCP and ethylene. 1-MCP was released from SmartFresh™ powder that contained 0.14% 1-MCP by weight (obtained from AgroFresh, Inc.). The amount of that SmartFresh™ powder was chosen to yield the target atmospheric concentration of 1-MCP in the chosen container. For example, the 1-MCP released from 1000 mg of that SmartFresh™ powder in 1 cubic meter yielded 1-MCP concentration in the atmosphere of 625 ppb.
(§2) The chosen amount of SmartFresh™ powder was dissolved in water into a tight flask and shaken until all the powder was dissolved. The flask was then put it into the airtight container and opened, to release the 1-MCP. At the same time of the opening of the 1-MCP flask, ethylene was injected with a syringe into the airtight container. Ethylene was taken from a compressed tank at known concentration: either taken directly or released into a flask. In the latter case the concentration was measured by gas-chromatograph to determine the quantity of volume to inject into the airtight container to get the target concentration.
(§3) The exposure to atmosphere containing either 1-MCP alone or 1-MCP and ethylene was done on cold pears (already cooled down to non-ambient storage temperature) within a maximum of 7 days from harvest and lasted 24 hours. At the end of the application, the airtight container was vented for 15 minutes and the fruits were put into RA or CA storage. RA storage was at temperature of −1° C. to 1° C. and at relative humidity of 80% to 98%. CA storage had the same temperature and humidity of RA storage, had oxygen level of 1% to 3%, by volume based on the volume of the atmosphere and had carbon dioxide level of 0.5% to 2%, by volume based on the volume of the atmosphere.
After RA storage, pears were exposed to ambient for the number of days shown below and then inspected for rot, bruising, and internal browning (“I.B.”). Results shown are the percentage of pears having the disorder.
Pears from SW France were examined as in Example 7, and the percent disordered fruit was as follows: […]

[2] = tested on: Conference Pears; experiment: Examination of Conference pears for scald; conditions: Example 9, CA 6 months; for percent with scald: Italy
From the text: as §1, §2, §3
Pears from Italy (the same pears whose firmness is reported herein above in Example 5) were examined for scald after exposure to ambient conditions for the number of days shown below.

[3] = tested on: Pears (Conference, William's/Bartlett, or Packam's); experiment: Firmness of pears, summary over all Examples; conditions: each of the Examples; samples exposed to 1-MCP and not to ethylene
From the text: as §1
The chosen amount of SmartFresh™ powder was dissolved in water into a tight flask and shaken until all the powder was dissolved. The flask was then put it into the airtight container and opened, to release the 1-MCP. […] In the latter case the concentration was measured by gas-chromatograph to determine the quantity of volume to inject into the airtight container to get the target concentration. […]
Pears denoted with a single number (e.g., “300”) received 1-MCP treatment with that concentration, in ppb, of 1-MCP in the atmosphere (e.g., 300 ppb) and were not exposed to exogenous ethylene. […] Reported quantity is “firmness” (“F”), the penetrometer force in kgf.

[4] = tested on: Conference Pears; experiment: Color rating of Conference pears; conditions: ambient 5-8 days; for Italy color / SW France color: scale of 0 (green) to 5 (yellow)
From the text: as §1, §2, §3
Pears were tested for firmness, as described above, and were rated for color on a scale of 0 (green) to 5 (yellow).

[5] = tested on: Conference Pears; experiment: Firmness of Conference pears by penetrometer after treatment, non-ambient storage and shelf life; set-up: key to SW France F (firmness) / Italy F (firmness) / Average F (firmness): penetrometer force in kgf (8 mm probe); conditions: for ES A F (firmness): farm ES A; for ES B F (firmness): farm ES B; for IT F (firmness): farm IT; for firmness: Example 9, CA 6 months; for Italy F (firmness) / firmness: Italy; for Orchard #1 F (firmness) / Orchard #2 F (firmness) / Orchard #3 F (firmness): Example 11, Spain, RA 3 months
From the text: as §1, §2, §3
In addition, samples of pears (from the same orchards from which pears treated with 1-MCP alone or 1-MCP and ethylene were harvested) were put into an airtight container for 24 hours at the temperature as the treated pears in order to reproduce the same environmental conditions. Then they were stored in the same rooms or in separated rooms in the same conditions of RA and CA as the treated pears. These pears received no exposure to 1-MCP, exogenous ethylene, or any combination thereof, and they are labeled “control” below.
Length of non-ambient storage at present commercial temperature and storage regime was generally of 2-4 months in RA and 6 months in CA, unless otherwise specified, according to normal commercial practice.
All pears received the same progression of non-ambient storage followed by exposure to ambient conditions (“shelf life”).
Pears denoted with a single number (e.g., “300”) received 1-MCP treatment with that concentration, in ppb, of 1-MCP in the atmosphere (e.g., 300 ppb) and were not exposed to exogenous ethylene. Pears denoted with two numbers (e.g. “300+600”) were treated with both that concentration in ppb of 1-MCP and that concentration in ppb of ethylene (e.g., 300 ppb of 1-MCP and 600 ppb of ethylene). The firmness of pears was tested using commercial penetrometers with test probe of 8 mm diameter. Reported quantity is “firmness” (“F”), the penetrometer force in kgf.

[6] = tested on: Packam's Pears; experiment: Firmness of Packam's pears by penetrometer after treatment, non-ambient storage and shelf life; conditions: South Africa, ambient 5 days, listed as 600
From the text: as §1, §2, §3
In addition, samples of pears (from the same orchards from which pears treated with 1-MCP alone or 1-MCP and ethylene were harvested) were put into an airtight container for 24 hours at the temperature as the treated pears in order to reproduce the same environmental conditions. Then they were stored in the same rooms or in separated rooms in the same conditions of RA and CA as the treated pears. […]
Pears denoted with a single number (e.g., “300”) received 1-MCP treatment with that concentration, in ppb, of 1-MCP in the atmosphere (e.g., 300 ppb) and were not exposed to exogenous ethylene. […] Reported quantity is “firmness” (“F”), the penetrometer force in kgf. […]

[7] = Example 3, RA 3 months, ambient 5 to 8 days
[8] = Example 4, CA 6 months, ambient 5 to 8 days
[9] = Example 5, RA 3 months, ambient 5-8 days
[10] = Example 6, CA 6 months, ambient 5-8 days
[11] = Example 7, RA 4 months, SW France, 13 ambient days
[12] = Example 8, CA 6 months, ambient 13 days, SW France

## CC1=CC1 [Sample 1-MCP, 1-MCP]
[1]; Example 7, RA 4 months
  percentage of disorders (in words): lower percentage of disorders than the control pears
[1]; Example 8, CA 6 months, ambient 13 days
  diseased fruits (in words): fewer diseased fruits that the control sample
[1]; Examples 7, 8, and 9
  resistance to deterioration (in words): showed resistance to deterioration
[2]
  pears with scald (in words): fewer pears with scald than the control group
[3]
  firmness (in words): undesirably high
[4]; Example 6, CA 6 months, on average
  color rating (in words): undesirably too green color rating

## CC1=CC1 [600(C), 1-MCP]
[5]; [7]
  AV F (firmness), average of the results from the seven farms: 5.7 kgf
  ES A F (firmness): 6.3 kgf
  ES B F (firmness): 6.3 kgf
  IT F (firmness): 5.7 kgf
[5]; Example 3, RA 3 months, ambient 5 to 8 days, farm FR A
  FR A F (firmness): 5.4 kgf
[5]; Example 3, RA 3 months, ambient 5 to 8 days, farm FR B
  FR B F (firmness): 5.2 kgf
[5]; Example 3, RA 3 months, ambient 5 to 8 days, farm NL A
  NL A F (firmness): 5.3 kgf
[5]; Example 3, RA 3 months, ambient 5 to 8 days, farm NL B
  NL B F (firmness): 5.6 kgf
[5]; [8]
  Av F (firmness), average of the results from the six farms: 5.4 kgf
  ES A F (firmness): 6.1 kgf
  ES B F (firmness): 5.6 kgf
  IT F (firmness): 4.9 kgf
[5]; Example 4, CA 6 months, ambient 5 to 8 days, farm FR
  FR F (firmness): 5.1 kgf
[5]; Example 4, CA 6 months, ambient 5 to 8 days, farm NL A
  NL A F (firmness): 5.1 kgf
[5]; Example 4, CA 6 months, ambient 5 to 8 days, farm NL B
  NL B F (firmness): 5.7 kgf
[5]; [9]
  Italy F (firmness): 5.7
  SW France F (firmness): 5.2
[5]; [10]
  Italy F (firmness): 4.9
  SW France F (firmness): 5.1
[5]; Example 6, CA 6 months, ambient 5-8 days, average of SW France and Italy
  Average F (firmness): 5.0
[5]; 0 ambient days
  firmness: 6.8 kgf
[5]; 7 ambient days
  firmness: 4.9 kgf
[5]; Example 10, RA 3 months, ambient 5 days
  Average F (firmness), average of the two orchards: 5.58 kgf
[5]; Example 10, RA 3 months, ambient 5 days, NL A
  NL A F (firmness): 5.65 kgf
[5]; Example 10, RA 3 months, ambient 5 days, NL B
  NL B F (firmness): 5.52 kgf
[5]; 0 days ambient
  Orchard #1 F (firmness): 5.95 kgf
  Orchard #2 F (firmness): 6.07 kgf
  Orchard #3 F (firmness): 6.46 kgf
[5]; 7 days ambient
  Orchard #1 F (firmness): 5.95 kgf
  Orchard #2 F (firmness): 6.03 kgf
  Orchard #3 F (firmness): 6.30 kgf
[5]; 12 days ambient
  Orchard #1 F (firmness): 5.75 kgf
  Orchard #2 F (firmness): 6.17 kgf
  Orchard #3 F (firmness): 6.58 kgf
[1]; Example 7, RA 4 months, Loire, France, 11 ambient days
  percentage of pears having internal browning (I.B.): 0 percentage
[1]; Example 7, RA 4 months, Loire, France, 13 ambient days
  percentage of pears having internal browning (I.B.): 0 percentage
[1]; Example 7, RA 4 months, Loire, France, 15 ambient days
  percentage of pears having internal browning (I.B.): 0 percentage
[1]; [11]
  percentage of pears having bruising: 0 percentage
  percentage of pears having internal browning (I.B.): 0 percentage
  percentage of pears having rot: 0 percentage
[1]; [12]
  percent disordered fruit: I.B.: 30%
  percent disordered fruit: rot: 13%
[6]; RA for 8 weeks
  8 weeks F (firmness): 6.5 kgf
[6]; RA for 12 weeks
  12 weeks F (firmness): 6.3 kgf
[2]; 0 ambient days
  percent with scald: 0%
[2]; 7 ambient days
  percent with scald: 1%
[4]; Example 5, RA 3 months
  Italy color: 2.1
  SW France color: 2.95
[4]; Example 6, CA 6 months
  Italy color: 3.4
  SW France color: 2.65
[4]; Example 6, CA 6 months, average of SW France and Italy, scale 0 (green) to 5 (yellow)
  Average color: 3.0
